According to patent publication US7491711B2, “Methods of treatment using 3-desoxy vitamin D3 analogs” (Roche Palo Alto LLC, priority 2001, dated 2009):
Marks after values point to notes of the source that are not given here.

Legend:
[1] = Serum calcium in the rat ovariectomy model (safety); format: in vivo; settings: OVX rats
Protocol: (§1) Comparison of the efficacy of Compound 7 to that of 1,25-dihydroxy vitamin D3 (i.e., VD3), was made using the standard animal model for post menopausal osteopenia, the rat ovariectomy model. Three month old rats weighing 285gm were ovariectomized (OVX), and then treated for 8 weeks beginning 1 week post OVX. Drugs were administered once/day orally in miglyol (medium chain triglyceride) vehicle. Blood and urine samples were collected at the 3 wk and 6 wk timepoint, and bone mineral density (BMD) was determined in vivo at 6 wk using Dual Energy X-ray Absorptiometry (Hologic QDR-4500™ Bone Scanner). At 8 weeks, the animals were sacrificed, and the lumbar vertebrae and femur bones removed for ex vivo BMD determination (Lunar PixiMus™ Bone Scanner) and biomechanical testing for strength. Data for each compound are reported in the accompanying tables for the highest safe doses.
(§2) The doses being compared all gave 3 wk serum calcium levels of 9.3 mg/dl, and 6 wk levels of 9.8±0.1 mg/dl. At these doses, the urinary calcium output per 24 hr sample was the same for the 0.4 nmol/kg dose of VD3 and the 0.5 nmol/kg dose of Compound 7. […] These doses represent those expected to give maximal efficacy achievable safely, as higher doses of each compound are known to be hypercalcemic. […] Failure Load, the amount of force needed to fracture the L5 vertebra, was determined in axial compression testing.

[2] = tested on: rat ovariectomy model (post menopausal osteopenia); assay: L5 vertebral body biomechanics (axial compression testing), rat ovariectomy model; format: in vivo; settings: OVX rats
Protocol: as §1, §2

[3] = tested on: rat ovariectomy model (post menopausal osteopenia); assay: Urinary deoxypyridinolines (marker of bone resorption), rat ovariectomy model; format: in vivo; settings: OVX rats
Protocol: as §1, §2

[4] = Urinary calcium in the rat ovariectomy model (safety); format: in vivo; settings: OVX rats; for urinary calcium output per 24 hr sample, compared between the two substances: 0.4 nmol/kg dose of VD3 and 0.5 nmol/kg dose of Compound 7
Protocol: as §1, §2

[5] = tested on: rat ovariectomy model (post menopausal osteopenia); assay: L5 bone density ex vivo (BMD, BMC), rat ovariectomy model; format: in vivo; settings: OVX rats
Protocol: as §1

[6] = tested on: rat ovariectomy model (post menopausal osteopenia); assay: Bone mineral density in vivo (Dual Energy X-ray Absorptiometry), rat ovariectomy model; settings: OVX rats
Protocol: as §1, §2

[7] = tested on: patients commencing long term treatment with prednisone or prednisolone; settings: 0.5 to 1.0 micrograms/day plus calcium 1000 mg/day, with or without intranasal calcitonin 400 IU/day; cited from earlier work
[8] = tested on: women with postmenopausal osteoporosis; settings: cited from earlier work
[9] = Week 3, 0.5 nmol/kg once/day orally
[10] = Week 6, 0.5 nmol/kg once/day orally
[11] = Week 8, 0.5 nmol/kg once/day orally
[12] = Week 3, 0.012 nmol/kg once/day orally
[13] = Week 3, 0.04 nmol/kg once/day orally
[14] = Week 6, 0.012 nmol/kg once/day orally
[15] = Week 6, 0.04 nmol/kg once/day orally
[16] = Week 8, 0.012 nmol/kg once/day orally

Structure (SMILES): C=C1/C(=C\C=C2/CCC[C@]3(C)[C@@H](C4(C/C=C/C(O)(C(F)(F)F)C(F)(F)F)CC4)CC[C@@H]23)CCC[C@@H]1O [Compound 27]
- SERUM CALCIUM, Mean [1, 9]: 9.3 ns mg/dl
- SERUM CALCIUM, Mean [1, 10]: 9.9 **+ mg/dl
- vertebral bone strength ([2]; L5 vertebra): stronger vertebral bone
- L5 Vertebral Body BIOMECHANICS, Failure Load, Mean [2, 11]: 419 ** N
- Failure Load, force needed to fracture the L5 vertebra, compared with VD3 ([2]; axial compression testing, highest safe doses): Significantly more force was needed
- Urinary deoxy-pyridinolines (marker of bone resorption), compared with VD3 ([3]; 6 weeks): significantly less
- URINARY D-PYD, Mean [3, 9]: 0.65 *+ nM/mM Creatinine
- URINARY D-PYD, Mean [3, 10]: 0.57 **+ nM/mM Creatinine
- urinary calcium output per 24 hr sample, compared between the two substances [4]: the same
- URINARY CALCIUM, Mean [4, 9]: 0.51 **+ MG/MMOL Creatineine/day
- URINARY CALCIUM, Mean [4, 10]: 0.72 **++ MG/MMOL Creatineine/day
- L5 Bone Density Ex Vivo, BMC, Mean [5, 11]: 0.039 ** g
- L5 Bone Density Ex Vivo, BMD, Mean [5, 11]: 0.112 ** g/cm^2
- PERCENT BMD > OVX CONTROL in vivo, Distal Femur, Mean [6, 10]: 8.5 ** PERCENT
- PERCENT BMD > OVX CONTROL in vivo, L2-L4 Vertebrae, Mean [6, 10]: 10.3 ** PERCENT
- PERCENT BMD > OVX CONTROL in vivo, L5 vertebrae, Mean [6, 10]: 8.7 ** PERCENT
- PERCENT BMD > OVX CONTROL in vivo, Prox Femur, Mean [6, 10]: 5.7 ** PERCENT
- PERCENT BMD > OVX CONTROL in vivo, Whole Femur, Mean [6, 10]: 6.3 ** PERCENT
- BMD at all of the bone sites listed, compared with VD3 ([6]; doses which give equivalent serum calcium levels): significantly higher

Structure (SMILES): C=C1/C(=C\C=C2/CCC[C@]3(C)[C@@H]([C@H](C)CCCC(C)(C)O)CC[C@@H]23)C[C@@H](O)C[C@@H]1O [VitD, 1,25-dihydroxy vitamin D3]
- SERUM CALCIUM, Mean [1, 12]: 9.3 nd mg/dl
- SERUM CALCIUM, Mean [1, 13]: 9.3 ns mg/dl
- SERUM CALCIUM, Mean [1, 14]: 9.8 **+ mg/dl
- SERUM CALCIUM, Mean [1, 15]: 9.7 ** mg/dl
- steroid-induced bone loss [7]: prevented steroid-induced bone loss
- L5 Vertebral Body BIOMECHANICS, Failure Load, Mean [2, 16]: 342 * N
- URINARY D-PYD, Mean [3, 12]: 0.81 ++ nM/mM Creatinine
- URINARY D-PYD, Mean [3, 13]: 0.75 ++ nM/mM Creatinine
- URINARY D-PYD, Mean [3, 14]: 0.78 ++ nM/mM Creatinine
- URINARY D-PYD, Mean [3, 15]: 0.76 ++ nM/mM Creatinine
- lower rate of new vertebral fractures compared with patients receiving elemental calcium 1000 mg/day ([8]; mild to moderate disease, 0.25 microgram twice daily, after 3 years of treatment): 3 fold
- tolerability ([8]; patients, overall): well tolerated
- urinary calcium output per 24 hr sample, compared between the two substances [4]: the same
- URINARY CALCIUM, Mean [4, 12]: 0.31 ** MG/MMOL Creatineine/day
- URINARY CALCIUM, Mean [4, 13]: 0.51 **+ MG/MMOL Creatineine/day
- URINARY CALCIUM, Mean [4, 14]: 0.43 ** MG/MMOL Creatineine/day
- URINARY CALCIUM, Mean [4, 15]: 0.71 **++ MG/MMOL Creatineine/day
- L5 Bone Density Ex Vivo, BMC, Mean [5, 16]: 0.035 ns g
- L5 Bone Density Ex Vivo, BMD, Mean [5, 16]: 0.103 ++ g/cm^2
- PERCENT BMD > OVX CONTROL in vivo, Distal Femur, Mean [6, 14]: 2.8 ++ PERCENT
- PERCENT BMD > OVX CONTROL in vivo, L2-L4 Vertebrae, Mean [6, 14]: 3.3 ++ PERCENT
- PERCENT BMD > OVX CONTROL in vivo, L5 vertebrae, Mean [6, 14]: 2.7 ++ PERCENT
- PERCENT BMD > OVX CONTROL in vivo, Prox Femur, Mean [6, 14]: 3.5 ns PERCENT
- PERCENT BMD > OVX CONTROL in vivo, Whole Femur, Mean [6, 14]: 3.3 + PERCENT
- PERCENT BMD > OVX CONTROL in vivo, Distal Femur, Mean [6, 15]: 2.8 ++ PERCENT
- PERCENT BMD > OVX CONTROL in vivo, L2-L4 Vertebrae, Mean [6, 15]: 5.4 * PERCENT
- PERCENT BMD > OVX CONTROL in vivo, L5 vertebrae, Mean [6, 15]: 4.9 ++ PERCENT
- PERCENT BMD > OVX CONTROL in vivo, Prox Femur, Mean [6, 15]: 0.7 ++ PERCENT
- PERCENT BMD > OVX CONTROL in vivo, Whole Femur, Mean [6, 15]: 1.9 ++ PERCENT
